Laboratory results published in patent US20040248971A1, “Use of vitamin e succinate and antiandrogen combination” (priority 2001, published 2004).
Entries after “also recorded” stand apart in the source; their conditions may differ.

Legend:
human TAP (hTAP) = human TAP (hTAP) (Homo sapiens, UniProt O76054); conditions: recombinant hTAP; read-out: Kd of binding to recombinant hTAP; cited from earlier work
LNCaP cells [1] = assay: MTT assay / cell counting, LNCaP cell growth; format: cell-based, human; conditions: for DHT-mediated LNCaP cell growth: 8% CS-FBS with 5 nM DHT
Method: Cells were harvested at the time indicated. […] Cells were harvested at the time indicated. […] Cell growth was determined by the MTT assay. The control group was cultured in 0.1% (vol/vol) ethanol and was set at 100%.
All the cell growth was determined by cell counting and MTT assay. Control group contained 0.1% (v/v) ethanol and was set at 100%.
LNCaP cells were cultured in RPMI medium with 8% FBS, and treated with 10^−5M of the indicated reagent Cells were harvested at the time indicated in the figure. All the cell growth was determined by cell counting and MTT assay. Control group contained 0.1% (v/v) ethanol and was set at 100%.
The human prostate cancer cell line LNCaP was obtained from the American Type Culture collection (Rockville, Md.). Fibroblast cell was primarily cultured from normal prostate tissue. LNCaP cells were propagated in 12-well, 60 mm or 100 mm culture dishes at the desired density in RPMI 1640 medium (Gibco, Rockville, Md.) supplemented with 8% fetal bovine serum (FBS) (Gibco, Rockville, Md.) at 37° C. and 5% CO2 until reaching 60%-80% confluence or were grown in phenol red-free RPMI medium 1640 with 8% fetal bovine serum (FBS). The fibroblast cells were maintained in DMEM (Gibco, Rockville, Md.) with 10% FBS. […] During the treatment, the medium was changed every 4 days and fresh compounds were added every 2 days.
The MTT assay is a quantitative colorimetric assay for mammalian cell survival and proliferation (13, 16). The 5×10^4 LNCaP cells were seeded in 12-well plates. After 36-48 h, the medium was changed to phenol red free RPMI1640 with 8 % FBS or CS-FBS for another 2, 4, and 6 days, with different compound treatment with or without ligand. At the end of each time period treatment, 200 μl of MTT (5 mg/ml; Sigma) was added into the each well with 1 ml of medium for 3 h at 37° C. After incubation, 2 ml of 0.04 M HCl in isopropyl alcohol was added into each well. After 30-min shaking at room temperature and several pippettings, the absorbency was read at a test wavelength of 595 nm. The 2×10^5 fibroblast cells were seeded in each well of 6-well dishes. […] For cell counting, cells were trypsinized, neutralized by medium, and counted on hemocytometers. Fibroblast cells were seeded at 2×10^5 per well in 6-well plates, and cell growth assays were conducted by using the same MTT assay used for LNCaP cells.

AR [2] = assay: AR expression in LNCaP cells (Western and Northern blotting); format: cell-based, human; conditions: for AR expression at the protein level: Western blotting, Suc or SM, 10 nM Vit D; for AR expression: Western blotting (FIG. 9)
Method: Cells were harvested at different time points. Twenty-five micrograms of RNA and 50 μg of protein collected from the same culture dish were applied for Northern blotting and Western blotting assays, respectively (45). The amount of actin is shown as a control. […] LNCaP cells without treatment were harvested on day 2 and used as a control. Whole-cell lysates were subjected to Western blotting assay using primary antibodies for AR, VDR, PPAR, or RXR. […] Protein harvested from cells without treatment on the first day (day 0) was used as a control. Fifty micrograms of whole-cell lysate was subjected to Western blotting assay. […] LNCaP cells were cultured in RPMI medium with 8% FBS, and treated with […] of the indicated reagent. Proteins harvested from cells without treatment on day 2 were used as a control. 60 micrograms of whole cell lysate was subjected to Western blotting assay. Total protein lysate from LNCaP cells was prepared as previously described (Yeh, PNAS). […] Membranes were washed in PBST (three times, 10 min each time) and incubated with AP-conjugated secondary antibody which was diluted as described in manual in PBST and incubated for 2 h in room temperature, washed in PBST (three times, 10 min each time). The proteins were detected by AP western blotting reagents. […] Cells were harvest after 1, 2, and 3 days treatment. Total RNA was extracted using Trizol, according to manufacturer's directions (GIBCO). Total RNA (20 μg) was electrophoresed though formaldehyde-agarose gels and transferred to Hybond-N+ membrane (Amersham Pharmacia Biotech) according the company's protocol (17). For Northern blots, the fragments of the human PSA, AR, and β-actin cDNA were labeled with [^32P]-dCTP using the random primed DNA labeling kit from Amersham Pharmacia Biotech. Membranes were prehybridized, hybridized, and washed using Rapid-hyb system from Amersham Pharmacia Biotech, according to the manufacturer's user manual. The mRNA was detected using phosphorimager screen system (Molecular Dynamics).

PSA = PSA expression in LNCaP cells (Western and Northern blotting); format: cell-based, human; conditions: for PSA expression at mRNA and protein levels: 5 nM DHT, 10 μM VES, Western and Northern blotting; for PSA expression: Western blotting (FIG. 9)
Method: (§1) Cells without treatment were harvested on day 2 and used as a control. Western blotting was used to detect the expression of PSA protein. Actin served as an internal control. […] Cells were harvested on days 1, 2, and 3 for Northern blotting analysis. β-Actin served as an internal control. […] The transfections were performed at least three times and presented as an average±SD. […] LNCaP cells without any treatment harvested on the first day (day 0) is used as a control. Western blotting was applied to detect the expression of PSA protein level. […] Cells were harvested on day 1, 2, and 3 for Northern blotting analyses. (G). […] The transfections were performed three times and presented as an average: bar-denotes standard deviation.
Protein harvested from cells without treatment on the first day (day 0) was used as a control. Fifty micrograms of whole-cell lysate was subjected to Western blotting assay.
LNCaP cells were cultured in RPMI medium with 8% FBS, and treated with […] of the indicated reagent. Proteins harvested from cells without treatment on day 2 were used as a control. 60 micrograms of whole cell lysate was subjected to Western blotting assay.
(§2) Total protein lysate from LNCaP cells was prepared as previously described (Yeh, PNAS). After separation of 50 μg protein by SDS-PAGE gel, proteins were transferred by electrophoresis to Immobilon-P membrane (Millipore Corp., Bedford, Mass.) and incubated in PBS with 0.1% Tween-20 and 10% FCS for 2 h. Primary antibodies specific for human AR, PSA, and β-actin were diluted in PBS with 0.1% Tween-20 (PBST) as described in manual and incubated at room temperature for 2 h. Membranes were washed in PBST (three times, 10 min each time) and incubated with AP-conjugated secondary antibody which was diluted as described in manual in PBST and incubated for 2 h in room temperature, washed in PBST (three times, 10 min each time). The proteins were detected by AP western blotting reagents.
Cells were harvest after 1, 2, and 3 days treatment. Total RNA was extracted using Trizol, according to manufacturer's directions (GIBCO). Total RNA (20 μg) was electrophoresed though formaldehyde-agarose gels and transferred to Hybond-N+ membrane (Amersham Pharmacia Biotech) according the company's protocol (17).
For Northern blots, the fragments of the human PSA, AR, and β-actin cDNA were labeled with [^32P]-dCTP using the random primed DNA labeling kit from Amersham Pharmacia Biotech. Membranes were prehybridized, hybridized, and washed using Rapid-hyb system from Amersham Pharmacia Biotech, according to the manufacturer's user manual. The mRNA was detected using phosphorimager screen system (Molecular Dynamics).

PSA6.0-Luc = assay: PSA promoter luciferase reporter (PSA6.0-Luc) in LNCaP cells; format: cell-based, human; conditions: 5 nM DHT, 10 μM VES or Suc
Method: as §1

AR [3] = assay: In vivo AR radioligand competition binding assay in LNCaP cells; set-up: species or system human
Method: [^3H]R1881-binding without competition was set at 100%. […] (B) AR N-C dimerization.
LNCaP cells were plated into 60-mm dishes and grown to 60% confluence. […] After 1-h incubation, cells were harvested by lysis buffer (PBS with 1% Triton X-100). Equal protein amounts of cell extract were subjected to binding assays, which were terminated by adding hydroxylapatite. Each sample was filtered by using a sampling manifold (Millipore) and unbound ligand was removed by washing. Filter papers that contained bound ligand were transferred to counting vials containing 5 ml of liquid scintillation fluid and counted with a multipurpose scintillation counter (Beckman).

LNCaP cells [4] = assay: MTT assay / cell counting, LNCaP cell growth; format: cell-based, human; conditions: 10 μM VES, 4 days, phase-contrast
PPARα = assay: PPAR expression in LNCaP cells (Western blotting); format: cell-based, human
Method: (§3) Cells were harvested at different time points. Twenty-five micrograms of RNA and 50 μg of protein collected from the same culture dish were applied for Northern blotting and Western blotting assays, respectively (45). The amount of actin is shown as a control. […] LNCaP cells without treatment were harvested on day 2 and used as a control. Whole-cell lysates were subjected to Western blotting assay using primary antibodies for AR, VDR, PPAR, or RXR.
as §2

SP1 = assay: GAL4-SP1 transactivation (pG5-Luc) in COS-1 cells; format: cell-based; conditions: 10 μM VES
AR [5] = assay: AR translocation / immunostaining; format: cell-based
Text: Whether VES could influence translocation of AR was examined.

RXRα = assay: RXR expression in LNCaP cells (Western blotting); format: cell-based, human; conditions: 10 μM VES
Method: as §3, §2

[6] = test system: primary cultured fibroblasts from normal prostate tissue; assay: MTT assay, primary cultured prostate fibroblast growth; format: cell-based; conditions: 10 μM VES, 10% FBS DMEM
[7] = RPMI 8% FBS, 10^−5M reagent, cell counting and MTT (FIGS. 8 and 10)
[8] = 8% FBS without DHT, HF 5 μM, VES 10 μM, MTT

human TAP (hTAP), sequence (O76054 whole entry): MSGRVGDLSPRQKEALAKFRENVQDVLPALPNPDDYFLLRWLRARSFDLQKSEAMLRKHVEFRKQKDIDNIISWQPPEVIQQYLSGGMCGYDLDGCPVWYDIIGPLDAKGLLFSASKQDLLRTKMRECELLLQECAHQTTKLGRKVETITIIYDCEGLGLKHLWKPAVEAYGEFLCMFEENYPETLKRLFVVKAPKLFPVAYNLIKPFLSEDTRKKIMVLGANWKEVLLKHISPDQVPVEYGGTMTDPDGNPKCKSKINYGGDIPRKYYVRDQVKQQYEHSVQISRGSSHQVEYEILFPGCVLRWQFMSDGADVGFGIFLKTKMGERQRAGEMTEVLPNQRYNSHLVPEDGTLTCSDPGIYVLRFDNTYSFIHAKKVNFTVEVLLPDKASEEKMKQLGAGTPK

## Cc1c(C)c2c(c(C)c1O)CCC(C)(CCCC(C)CCCC(C)CCCC(C)C)O2 (centres unmarked) [vitamin E]
Human TAP (hTAP)
  Kd: 460 nM

## C=C1/C(=C\C=C2/CCC[C@]3(C)[C@@H]([C@H](C)CCCC(C)(C)O)CC[C@@H]23)C[C@@H](O)C[C@@H]1O [Vit D, 1α, 25-dihydroxyvitamin D3]
LNCaP cells [1]; [7]
  LNCaP cell growth: can inhibit
AR [2]; 10 μM VES
  AR expression at the protein level: not

## C[C@]12CCC(=O)C[C@@H]1CC[C@@H]1[C@@H]2CC[C@]2(C)[C@@H](O)CC[C@@H]12 [DHT, 5-dihydrotestosterone]
PSA; LNCaP
  PSA expression at mRNA and protein levels: induced
LNCaP cells [1]; 8% CS-FBS, DHT 5 nM, MTT
  LNCaP cell growth: can stimulate
PSA6.0-Luc
  DHT induced PSA6.0-Luc activity: induced

## C[C@]1(O)CC[C@H]2[C@@H]3CCC4=CC(=O)CCC4=C3C=C[C@@]21C [R1881, reference compound]
AR [3]; 2.5 nM [3H]R1881, 100-fold excess unlabeled R1881 (250 nM)
  specific binding of [3H]R1881 competed: 95%

## Cc1c(O)cc2c(c1C)O[C@](C)(CCC[C@H](C)CCC[C@H](C)CCCC(C)C)CC2 [γ-Vit E, (+)-γ-tocopherol]
PSA; LNCaP, 8% FBS
  PSA expression: do not efficiently inhibit
LNCaP cells [1]; [7]
  LNCaP cell growth: can inhibit
AR [2]; 8% FBS
  AR expression: do not efficiently inhibit

## Cc1c(C)c2c(c(C)c1O)CC[C@@](C)(CCC[C@H](C)CCC[C@H](C)CCCC(C)C)O2 [α-Vit E, alpha—tocopherol]
PSA; LNCaP, 8% FBS
  PSA expression: can also inhibit
LNCaP cells [1]; [7]
  LNCaP cell growth: can inhibit
AR [2]; 8% FBS
  AR expression: can also inhibit

## C[Se]CC[C@H](N)C(=O)O [SM, selenomethionine]
PSA; LNCaP, 8% FBS, 10 μM SM, Western blot
  PSA expression (protein): no effect
LNCaP cells [1]; 10 μM SM, after 4 days treatment
  LNCaP cell growth: growth inhibition
AR [2]; 10 μM VES
  AR expression at the protein level: no effect

## Cc1c(C)c2c(c(C)c1OC(=O)CCC(=O)O)CCC(C)(CCCC(C)CCCC(C)CCCC(C)C)O2 (stereo not drawn) [VES, RRR-α-tocopheryl succinate]
PSA; LNCaP cells in normal serum or androgen-stimulated conditions
  intracellular and secreted levels of PSA: decreases
PSA; LNCaP, 8% FBS
  PSA expression: most effective isoform
PSA; LNCaP
  PSA expression at mRNA and protein levels: effectively repressed
LNCaP cells [1]; HF 5 μM, VES 10 μM, MTT
  DHT-mediated LNCaP cell growth: effectively represses
LNCaP cells [1]; [8]
  LNCaP cell growth: inhibits; also recorded: differentially inhibit
LNCaP cells [1]; [7]
  LNCaP cell growth: can inhibit; also recorded: most effective compound; also recorded: most effective isoform
LNCaP cells [4]
  morphologic change of LNCaP cells: most of the cells dying
PPARα; 10 uM VES
  PPARr expression: little effect
PPARα; 10 μM VES
  PPARα expression: little effect
PSA6.0-Luc
  DHT induced PSA6.0-Luc activity: repressed
AR [2]; 8% FBS, 10 μM VES, Northern and Western blotting
  AR mRNA and protein expression: inhibits
AR [2]; 8% FBS
  AR expression: most effective isoform
AR [2]; 10 μM VES
  AR expression at the protein level: could suppress
SP1
  GAL4-SP1 transcription activity: did not significantly inhibit
AR [5]
  AR distribution between cytosol and nucleus: little influence
  total AR-staining intensity: reduced
RXRα
  RXRα expression: little effect
[6]
  prostate fibroblast cell growth: only a marginal inhibitory effect and not
AR [3]; 10 μM VES pretreatment 24 h, 2.5 nM [3H]R1881
  influence on AR ligand binding: little influence

## CC(=O)Oc1c(C)c(C)c2c(c1C)CCC(C)(CCC[C@H](C)CCC[C@H](C)CCCC(C)C)O2 (stereo partly drawn) [VEA, α-Vit E acetate]
PSA; LNCaP, 8% FBS
  PSA expression: do not efficiently inhibit
AR [2]; 8% FBS
  AR expression: do not efficiently inhibit

## O=C(O)CCC(=O)O [Suc, succinic acid]
PSA6.0-Luc
  DHT induced PSA6.0-Luc activity: not
AR [2]; 10 μM VES
  AR expression at the protein level: not

## CC(C)(O)C(=O)Nc1ccc([N+](=O)[O-])c(C(F)(F)F)c1 [HF, hydroxyflutamide]
LNCaP cells [1]; HF 5 μM, VES 10 μM, MTT
  DHT-mediated LNCaP cell growth: fails to repress
LNCaP cells [1]; [8]
  LNCaP cell growth: induces LNCaP cell growth at day 2, with the induction gradually diminishing after day 4
